Results from patent US20200172491A1, “SUBSTITUTED 5-(HET-)ARYLPYRAZOLAMIDES AND SALTS THEREOF AND THEIR USE AS HERBICIDAL ACTIVE SUBSTANCES” (Bayer CropScience Aktiengesellschaft, priority 2017, published 2020).

Tests used:
Format in all cases: in vivo
Amaranthus retroflexus [1] = assay: Pre-emergence herbicidal action; conditions: 320 g/ha, scored after about 3 weeks, 100% = plants have died, 0% = like control plants
Excerpt: (§1) Seeds of monocotyledonous and dicotyledonous weed plants and crop plants were placed in plastic or wood-fiber pots and covered with soil. The compounds of the invention, formulated in the form of wettable powders (WP) or as emulsion concentrates (EC), were then applied to the surface of the covering soil as aqueous suspension or emulsion with addition of 0.5% additive at a water application rate equivalent to 600 l/ha. After the treatment, the pots were placed in a greenhouse and kept under good growth conditions for the test plants. After about 3 weeks, the effect of the preparations is scored visually in comparison with untreated controls as percentages. For example, 100% activity=the plants have died, 0% activity=like control plants. Tables B7 to B11 below show the effects of selected compounds of the general formula (I) according to Table A1 at an application rate of 320 g/ha on various harmful plants, which were obtained by the aforementioned experimental procedure.

Stellaria media [2] = assay: Pre-emergence herbicidal action; conditions: 320 g/ha, scored after about 3 weeks, 100% = plants have died, 0% = like control plants
Excerpt: as §1

Veronica persica = assay: Pre-emergence herbicidal action; conditions: 320 g/ha, scored after about 3 weeks, 100% = plants have died, 0% = like control plants
Excerpt: as §1

Matricaria inodora [3] = assay: Pre-emergence herbicidal action; conditions: 320 g/ha, scored after about 3 weeks, 100% = plants have died, 0% = like control plants
Excerpt: as §1

Ipomoea purpurea = assay: Post-emergence herbicidal action; conditions: 320 g/ha, rated after about 3 weeks, 100% = plants have died, 0% = like control plants
Method: (§2) Seeds of monocotyledonous and dicotyledonous weeds and crop plants were placed in sandy loam in plastic or wood-fiber pots, covered with soil and cultivated in a greenhouse under controlled growth conditions. 2 to 3 weeks after sowing, the test plants were treated at the one-leaf stage. The compounds of the invention, formulated in the form of wettable powders (WP) or as emulsion concentrates (EC), were then sprayed onto the green parts of the plants as aqueous suspension or emulsion with addition of 0.5% additive at a water application rate of 600 l/ha (converted). After the test plants had been kept in the greenhouse under optimum growth conditions for about 3 weeks, the activity of the preparations was rated visually in comparison to untreated controls. For example, 100% activity=the plants have died, 0% activity=like control plants. Tables B1 to B6 below show the effects of selected compounds of the general formula (I) according to Table A1 at an application rate of 320 g/ha on various harmful plants, which were obtained by the aforementioned experimental procedure.

Amaranthus retroflexus [4] = assay: Post-emergence herbicidal action; conditions: 320 g/ha, rated after about 3 weeks, 100% = plants have died, 0% = like control plants
Method: as §2

Stellaria media [5] = assay: Post-emergence herbicidal action; conditions: 320 g/ha, rated after about 3 weeks, 100% = plants have died, 0% = like control plants
Method: as §2

Viola tricolor = assay: Post-emergence herbicidal action; conditions: 320 g/ha, rated after about 3 weeks, 100% = plants have died, 0% = like control plants
Method: as §2

Matricaria inodora [6] = assay: Post-emergence herbicidal action; conditions: 320 g/ha, rated after about 3 weeks, 100% = plants have died, 0% = like control plants
Method: as §2

Row | SMILES | herbicidal activity on Amaranthus retroflexus (visual rating vs untreated controls) (Amaranthus retroflexus [1]) [%] | herbicidal activity on Stellaria media (visual rating vs untreated controls) (Stellaria media [2]) [%] | herbicidal activity on Veronica persica (visual rating vs untreated controls) (Veronica persica) [%] | herbicidal activity on Matricaria inodora (visual rating vs untreated controls) (Matricaria inodora [3]) [%] | herbicidal activity on Ipomoea purpurea (visual rating vs untreated controls) (Ipomoea purpurea) [%] | herbicidal activity on Amaranthus retroflexus (visual rating vs untreated controls) (Amaranthus retroflexus [4]) [%] | herbicidal activity on Stellaria media (visual rating vs untreated controls) (Stellaria media [5]) [%] | herbicidal activity on Viola tricolor (visual rating vs untreated controls) (Viola tricolor) [%] | herbicidal activity on Matricaria inodora (visual rating vs untreated controls) (Matricaria inodora [6]) [%]
1 | Cc1nn(C)c(-c2ccc(F)cc2Cl)c1C(=O)Nc1cccc(Cl)c1 [I-001] | 100 | 100 | 100 | 100 | 100 | 100 | 100 | 100 | 90
2 | Cc1ccc(Cl)cc1NC(=O)c1c(C)nn(C)c1-c1ccc(F)cc1Cl [I-009] | 100 | 100 | 100 | 100 | 100 | 100 | 100 | 100 | 100
3 | Cc1nn(C)c(-c2ccc(F)cc2Cl)c1C(=O)Nc1c(Cl)cccc1Cl [I-013] | 100 | 100 | 100 | 100 | 100 | 100 | 100 | 100 | 100
4 | Cc1ccccc1NC(=O)c1c(C)nn(C)c1-c1ccc(F)cc1Cl [I-016] | 100 | 100 | 80 | 100 | 100 | 100 | 100 | 100 | 100
5 | Cc1nn(C)c(-c2ccc(F)cc2Cl)c1C(=O)Nc1cccc(F)c1 [I-027] | 100 | 100 | 100 | 100 | 100 | 100 | 100 | 100 | 100
